Test results taken from ChEMBL document CHEMBL4118282 (Bioorg Med Chem Lett, 2018).

Tests used:
[1] = Cytotoxicity against human MT4 cells assessed as reduction in cell viability after 5 days by MTT assay; format: cell-based
[2] = Therapeutic index, ratio of CC50 for human MT4 cells to EC50 for HIV1 3B […] infected in human MT4 cells; format: toxicity, cell-based; conditions: read-out: Ratio CC50/EC50

Row | SMILES | CC50 at 120 h [1] [µM] | selectivity ratio [2]
1 | CC(C)[C@H](NC(=O)N(C)Cc1c[se]c(-c2ccccc2)n1)C(=O)N[C@@H](Cc1ccccc1)C[C@H](O)[C@H](Cc1ccccc1)NC(=O)OCc1cncs1 | 21 | 124
2 | CC(C)c1nc(CN(C)C(=O)N[C@H](C(=O)N[C@@H](Cc2ccccc2)C[C@H](O)[C@H](Cc2ccccc2)NC(=O)OCc2cncs2)C(C)C)c[se]1 | 42 | 76
